Where “and” joins values, the source holds several entries; their conditions need not be identical. Equal entries are not always repeated.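 Compound exposure: 48 hours, 5 concentrations, 96-well plates. GI50 marks 50% less growth.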 Calls of active or inactive are those of the source. Cut-off read from the data, not from the text of the source: active = GI50 up to about 1.1 µM and inactive = higher.
Legend:
Assay in all cases: DTP human tumour cell line panel, 48 h
SK-MEL-2 = tested on: SK-MEL-2
MDA-MB-435 = tested on: MDA-MB-435
SK-MEL-28 = tested on: SK-MEL-28
NCI/ADR-RES = tested on: NCI/ADR-RES
SW-620 = tested on: SW-620
K562 = tested on: K562
T47D = tested on: T47D
MDA-MB-231 = tested on: MDA-MB-231
SF-539 = tested on: SF-539
CCRF-CEM = tested on: CCRF-CEM
OVCAR-5 = tested on: OVCAR-5
SN12C = tested on: SN12C
A498 = tested on: A498
MDA-N = tested on: MDA-N
UACC-62 = tested on: UACC-62
UO-31 = tested on: UO-31
KM12 = tested on: KM12
M14 = tested on: M14
TK-10 = tested on: TK-10
DU-145 = tested on: DU-145

Structure (SMILES) | GI50 (SK-MEL-2) | GI50 (MDA-MB-435) | GI50 (SK-MEL-28) | GI50 (NCI/ADR-RES) | GI50 (SW-620) | GI50 (K562) | GI50 (T47D) | GI50 (MDA-MB-231) | GI50 (SF-539) | GI50 (CCRF-CEM) | GI50 (OVCAR-5) | GI50 (SN12C) | GI50 (A498) | GI50 (MDA-N) | GI50 (UACC-62) | GI50 (UO-31) | GI50 (KM12) | GI50 (M14) | GI50 (TK-10) | GI50 (DU-145)
CCOc1ccc(N/C(=C(/C(Cl)=C(/Cl)NCCN)[N+](=O)[O-])n2nnc3ccccc32)cc1 | > 100 µM (inactive) | 44.3 µM (inactive) | 27.9 µM (inactive) | 49.5 µM (inactive) | 6.79 µM (inactive) | 26.8 µM (inactive) | 32.3 µM (inactive) | 25.9 µM (inactive) | 18.2 µM (inactive) | 22.6 µM (inactive) | 67.3 µM (inactive) | 35.6 µM (inactive) | 56.8 µM (inactive) | 58.1 µM (inactive) | 43.5 µM (inactive) | 37.9 µM (inactive) | 30.8 µM (inactive) | 43.9 µM (inactive) | – | –
CC(=O)OCC1OC(n2c(N)c(C#N)c(C)c(C#N)c2=S)C(OC(C)=O)C(OC(C)=O)C1OC(C)=O (centres undefined) | > 100 µM (inactive) | > 100 µM (inactive) | > 100 µM (inactive) | > 100 µM (inactive) | > 100 µM (inactive) | – | > 100 µM (inactive) | – | > 100 µM (inactive) | > 100 µM (inactive) | > 100 µM (inactive) | > 100 µM (inactive) | > 100 µM (inactive) | > 100 µM (inactive) | > 100 µM (inactive) | > 100 µM (inactive) | > 100 µM (inactive) | 46.3 µM (inactive) and 80.9 µM (inactive) | > 100 µM (inactive) | > 100 µM (inactive)
COc1ccc(C2SC(=N)Nc3c2c(C)nn3C(=O)c2ccncc2)cc1OC (centres undefined) | > 10 µM (inactive) | > 10 µM (inactive) | > 10 µM (inactive) | > 10 µM (inactive) | > 10 µM (inactive) | > 10 µM (inactive) | > 10 µM (inactive) | > 10 µM (inactive) | > 10 µM (inactive) | > 10 µM (inactive) | > 10 µM (inactive) | > 10 µM (inactive) | – | > 10 µM (inactive) | > 10 µM (inactive) | – | > 10 µM (inactive) | > 10 µM (inactive) | > 10 µM (inactive) | > 10 µM (inactive)
Cc1cc(S(=O)(=O)Nc2nc3ccccc3n2-c2ccccc2)c(S)cc1Cl | > 100 µM (inactive) | > 100 µM (inactive) | > 100 µM (inactive) | > 100 µM (inactive) | > 100 µM (inactive) | > 100 µM (inactive) | 9.12 µM (inactive) | > 100 µM (inactive) | > 100 µM (inactive) | > 100 µM (inactive) | > 100 µM (inactive) | – | – | 87.5 µM (inactive) | > 100 µM (inactive) | > 100 µM (inactive) | > 100 µM (inactive) | > 100 µM (inactive) | – | > 100 µM (inactive)
C/C(=N\Nc1nc2ccccc2n1C)c1cnccn1 | 0.839 µM (active) | 0.55 µM (active) | 0.565 µM (active) | 0.164 µM (active) | 0.0418 µM (active) | < 0.0316 µM (active) | 0.0702 µM (active) | 0.044 µM (active) | 0.692 µM (active) | 0.0513 µM (active) | – | 0.0395 µM (active) | 0.684 µM (active) | 0.753 µM (active) | 0.366 µM (active) | 0.0407 µM (active) | 0.824 µM (active) | 0.064 µM (active) | 0.0703 µM (active) | –
COc1ccc(C(=O)c2nc3ccccc3nc2N2CCN(c3ccccc3)CC2)cc1OC | > 100 µM (inactive) | > 100 µM (inactive) | > 100 µM (inactive) | > 100 µM (inactive) | > 100 µM (inactive) | > 100 µM (inactive) | > 100 µM (inactive) | – | > 100 µM (inactive) | > 100 µM (inactive) | > 100 µM (inactive) | – | > 100 µM (inactive) | > 100 µM (inactive) | > 100 µM (inactive) | > 100 µM (inactive) | > 100 µM (inactive) | > 100 µM (inactive) | > 100 µM (inactive) | > 100 µM (inactive)
N#C/C(=C\c1cccc(Br)c1)c1nc2ccccc2c(=O)[nH]1 | > 100 µM (inactive) | > 100 µM (inactive) | > 100 µM (inactive) | > 100 µM (inactive) | > 100 µM (inactive) | > 100 µM (inactive) | > 100 µM (inactive) | 41.7 µM (inactive) | 47.9 µM (inactive) | > 100 µM (inactive) | > 100 µM (inactive) | > 100 µM (inactive) | – | > 100 µM (inactive) | 76.2 µM (inactive) | > 100 µM (inactive) | > 100 µM (inactive) | > 100 µM (inactive) | 42.1 µM (inactive) | > 100 µM (inactive)
CCOc1ccc(/C=N/[N+](C)(C)C)cc1OCC | – | > 10 µM (inactive) | > 10 µM (inactive) | > 10 µM (inactive) | > 10 µM (inactive) | > 10 µM (inactive) | > 10 µM (inactive) | > 10 µM (inactive) | > 10 µM (inactive) | > 10 µM (inactive) | > 10 µM (inactive) | > 10 µM (inactive) | – | > 10 µM (inactive) | > 10 µM (inactive) | – | > 10 µM (inactive) | > 10 µM (inactive) | > 10 µM (inactive) | > 10 µM (inactive)
CC(=O)Nc1ccc(N2C(=O)CS(=O)(=O)C2c2cccc(Oc3ccccc3)c2)cc1 (centres undefined) | 19.2 µM (inactive) | 21.2 µM (inactive) | 21.9 µM (inactive) | 17.6 µM (inactive) | 28.9 µM (inactive) | 18.8 µM (inactive) | 15.9 µM (inactive) | 17.4 µM (inactive) | 19.5 µM (inactive) | 53.1 µM (inactive) | 17.6 µM (inactive) | 15.1 µM (inactive) | – | 16.8 µM (inactive) | 13.4 µM (inactive) | 17.5 µM (inactive) | 17.2 µM (inactive) | 18 µM (inactive) | 20.4 µM (inactive) | 33.7 µM (inactive)
N=C(N)N/N=C/c1c(-c2ccccc2[N+](=O)[O-])nc2sccn12 | 15.1 µM (inactive) | 17.1 µM (inactive) | 30.8 µM (inactive) | > 100 µM (inactive) | 18.4 µM (inactive) | 14.1 µM (inactive) | 18.3 µM (inactive) | 16.1 µM (inactive) | 19.2 µM (inactive) | 19.4 µM (inactive) | 30.7 µM (inactive) | 32.5 µM (inactive) | 18.8 µM (inactive) | – | 17.5 µM (inactive) | 36.8 µM (inactive) | 20.4 µM (inactive) | 16.7 µM (inactive) | 23.6 µM (inactive) | 48.2 µM (inactive)
COc1ccc(/C=C2\CCC(CN(C)C)C2=O)cc1OC (centres undefined) | 11.5 µM (inactive) | 5.55 µM (inactive) | 5.48 µM (inactive) | 2.49 µM (inactive) | 1.82 µM (inactive) | 1.17 µM (inactive) | 5.41 µM (inactive) | 2.35 µM (inactive) | 10.5 µM (inactive) | 1.32 µM (inactive) | 14.8 µM (inactive) | 3.43 µM (inactive) | 14.6 µM (inactive) | – | 5.46 µM (inactive) | 11.5 µM (inactive) | 2.37 µM (inactive) | 6.87 µM (inactive) | 7.14 µM (inactive) | 8.24 µM (inactive)
Cc1cccc(C)c1NC(=O)C(=O)C(c1ccccc1Cl)S(=O)(=O)Cc1ccccc1Cl (centres undefined) | > 83.8 µM (inactive) | > 100 µM (inactive) | > 100 µM (inactive) | > 100 µM (inactive) | > 100 µM (inactive) | > 100 µM (inactive) | > 100 µM (inactive) | 31.1 µM (inactive) | 16 µM (inactive) | > 100 µM (inactive) | > 100 µM (inactive) | > 85.5 µM (inactive) | – | > 100 µM (inactive) | 31.7 µM (inactive) | > 100 µM (inactive) | > 100 µM (inactive) | > 100 µM (inactive) | > 61.2 µM (inactive) | > 100 µM (inactive)
O=[N+]([O-])C[C@@]12O[C@]3(O)C4C5CC(C6C5C3C61)C42 (some centres undefined) | > 100 µM (inactive) | > 100 µM (inactive) | > 100 µM (inactive) | > 100 µM (inactive) | > 100 µM (inactive) | > 100 µM (inactive) | > 100 µM (inactive) | > 100 µM (inactive) | > 100 µM (inactive) | > 100 µM (inactive) | > 100 µM (inactive) | > 100 µM (inactive) | > 100 µM (inactive) | – | > 100 µM (inactive) | > 100 µM (inactive) | > 100 µM (inactive) | > 100 µM (inactive) | > 100 µM (inactive) | > 100 µM (inactive)
c1ccc(CCN2CCN=C2Cc2ccccc2)cc1 | > 100 µM (inactive) | – | > 100 µM (inactive) | 90.4 µM (inactive) | > 100 µM (inactive) | 29.2 µM (inactive) | > 100 µM (inactive) | > 100 µM (inactive) | – | 37.3 µM (inactive) | > 100 µM (inactive) | > 100 µM (inactive) | > 100 µM (inactive) | > 100 µM (inactive) | > 100 µM (inactive) | 99.1 µM (inactive) | > 100 µM (inactive) | 31.1 µM (inactive) | > 100 µM (inactive) | > 100 µM (inactive)
C1=CCC[C@@H]2CN3CCCC/C=C\CCCC[C@H]4C[C@H](CN(CCCCCCCC1)C4)[C@H]2CC3 | 8.61 µM (inactive) | 8.69 µM (inactive) | 7.93 µM (inactive) | – | 9.02 µM (inactive) | 9.79 µM (inactive) | 12.7 µM (inactive) | 9.04 µM (inactive) | 7.98 µM (inactive) | 12.4 µM (inactive) | 10.6 µM (inactive) | 12.5 µM (inactive) | 12.3 µM (inactive) | 8.79 µM (inactive) | 9.46 µM (inactive) | – | 7.91 µM (inactive) | 8.97 µM (inactive) | 8.83 µM (inactive) | 18.2 µM (inactive)

— ChEMBL document CHEMBL1201862, “PubChem BioAssay data set” (2004)
